This is an account of results in patent US11492351B2, “MTA-cooperative PRMT5 inhibitors” (Mirati Therapeutics, Inc., priority 2019, dated 2022).

The structures appear in SMILES notation. pIC50: −log10 of the molar value. Some results are limits rather than exact numbers.

Usually pIC50 stands for −log10 of the IC50, conventionally taken in molar units.

The target in assay [1] is T1, PRMT5/MEP50 complex (Homo sapiens (Human), UniProt O14744). The experiment in a line: PRMT5:MEP50 FlashPlate Assay (histone H4 peptide, plus and minus MTA). It is filed as biochemical. The procedure:
(§1) The PRMT5 inhibitory activity of compounds of the present invention was determined using either a PRMT5:MEP50 FlashPlate Assay (Reaction Biology Corporation) or a PRMT5:MEP50 HotSpot Assay (Reaction Biology Corporation).
1. PRMT5:MEP50 FlashPlate Assay

The target in assay [2] is T1, PRMT5/MEP50 complex. The experiment in a line: PRMT5:MEP50 HotSpot Assay (full-length histone H2A, plus and minus MTA). It is filed as biochemical. As for the experimental part:
as §1
The assay uses recombinant full-length histone H2A as the PRMT5 substrate. […] The reaction was stopped and transferred to filter paper for detection. The amount of tritiated H2A in each sample was determined using a scintillation counter.

The mark [3] stands for this setting: in the absence of MTA, read-out: IC50.
Where [4] appears, read: read-out: IC50 + 2 μM MTA, in the presence of 2 μM MTA.

T1 sequence (O14744 whole entry): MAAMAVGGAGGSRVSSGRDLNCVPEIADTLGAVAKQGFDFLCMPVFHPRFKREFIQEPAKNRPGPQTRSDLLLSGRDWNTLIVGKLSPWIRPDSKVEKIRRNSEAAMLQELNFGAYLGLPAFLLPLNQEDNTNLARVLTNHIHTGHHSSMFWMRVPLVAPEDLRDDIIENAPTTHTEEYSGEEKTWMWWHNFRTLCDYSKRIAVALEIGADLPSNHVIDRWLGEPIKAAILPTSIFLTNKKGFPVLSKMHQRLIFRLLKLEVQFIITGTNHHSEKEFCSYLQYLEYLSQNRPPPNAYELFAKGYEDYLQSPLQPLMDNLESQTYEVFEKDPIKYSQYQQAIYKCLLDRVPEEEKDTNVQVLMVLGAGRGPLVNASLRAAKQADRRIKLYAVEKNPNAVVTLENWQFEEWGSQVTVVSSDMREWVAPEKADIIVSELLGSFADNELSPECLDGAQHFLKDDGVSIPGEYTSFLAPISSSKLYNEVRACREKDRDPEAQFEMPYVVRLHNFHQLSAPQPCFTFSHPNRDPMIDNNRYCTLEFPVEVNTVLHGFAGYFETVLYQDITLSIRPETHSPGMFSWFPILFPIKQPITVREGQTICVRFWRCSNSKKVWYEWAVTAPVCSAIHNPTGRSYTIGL
T1 sequence (Q9BQA1 whole entry partner): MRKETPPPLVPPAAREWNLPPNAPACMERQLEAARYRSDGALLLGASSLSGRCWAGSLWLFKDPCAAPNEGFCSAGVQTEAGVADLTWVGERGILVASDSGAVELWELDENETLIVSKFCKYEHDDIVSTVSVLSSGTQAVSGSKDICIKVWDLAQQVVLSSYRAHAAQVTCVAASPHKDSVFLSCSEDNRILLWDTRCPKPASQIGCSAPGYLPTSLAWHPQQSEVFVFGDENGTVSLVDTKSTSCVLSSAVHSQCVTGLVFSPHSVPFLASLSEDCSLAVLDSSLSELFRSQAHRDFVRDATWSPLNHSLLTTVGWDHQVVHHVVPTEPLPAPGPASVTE

For the compound `Cc1cc2c(=O)[nH]nc(CN)c2cc1-c1cncc(C#N)c1` [Example 3-38], the pIC50 is 5.31 on PRMT5/MEP50 complex [1] (setting [3]) and 6.43 at PRMT5/MEP50 complex [1] (setting [4]). As for `Cn1ncc(-c2ccc3c(=O)[nH]nc(CN)c3c2)c1-c1ccccc1C#N` [Example 4-100, 2-(4-(4-(aminomethyl)-1-oxo-1,2-dihydrophthalazin-6-yl)-1-methyl-1H-pyrazol-5-yl)benzonitrile], the pIC50 at PRMT5/MEP50 complex [2] (setting [3]) was under 5.00. On to `Cc1nc2cncc(-c3ccc4c(=O)[nH]nc(CN)c4c3)c2o1` [Example 4-110, 4-(aminomethyl)-6-(2-methyloxazolo[4,5-c]pyridin-7-yl)phthalazin-1(2H)-one], for which, at PRMT5/MEP50 complex [1] (setting [3]), the pIC50 is under 4.00. With `Cn1ncc(-c2ccc3c(=O)[nH]nc([C@H](N)C(F)F)c3c2)c1-c1ccc2ccccc2c1C#N` [Example 9-6, 2-[4-[4-[(1S)-1-amino-2,2-difluoro-ethyl]-1-oxo-2H-phthalazin-6-yl]-2-methyl-pyrazol-3-yl]naphthalene-1-carbonitrile], at PRMT5/MEP50 complex [2] (setting [4]), the negative-log IC50 (pIC50) was under 5.00.
